“Also recorded” adds a separate entry of the source. Like-named read-outs stand apart in the source and are kept apart here.
Columns and labels:
Rat hepatocytes [1] = assay: Albumin synthesis rate of rat hepatocytes (collagen sandwich) exposed to supplemented citrated human plasma; format: cell-based; settings: for Albumin synthesis (in words) vs plasma with BME amino acid supplementation: 10 mM as only amino acid supplementation of citrated plasma
Description: (§1) Type I collagen was prepared from Lewis rat tail tendons as previously described in Dunn et al. (supra). […] Six-well culture plates were coated with 0.5 ml of collagen gelling solution and the coated plates were incubated at 37° C. for 1 hour to allow for gelation. The hepatocytes were suspended in culture medium and seeded at a density of 1.0×10^6 cell per well. The standard hepatocyte culture medium consisted of DMEM supplemented with 10% FBS, 0.5 U/ml insulin, 14 ng/ml glucagon, 20 ng/ml EGF, 7.5 μg/ml hydrocortisone, 200 U/ml penicillin, and 200 μg/ml streptomycin. After incubating at 37° C. in a humidified gas mixture of 90% air/10% CO2 for 24 hours, the culture medium was removed and the cells were overlaid with a second 0.5 ml layer of collagen gelling solution to form the collagen sandwich. After gelling for 45 minutes at 37° C., 1 ml of fresh medium was added. Fresh medium (1 ml) was supplied to the cultures daily after removal of the previous day's medium. The hepatocytes were cultured for 6 days in standard culture medium prior to plasma exposure.
(§2) Expired plasma from a blood bank was pooled, aliquoted, and kept frozen until used for experiments. Plasma supplements were prepared in concentrated form and added individually to plasma as described in the following examples.
(§3) In each set of experiments, components of the supplementation to be included or excluded were designated according to the result from prior experiments. On the 7th day after isolation, the culture medium was removed and hepatocytes were fed with 1 ml of plasma. Cells were fed with fresh plasma daily thereafter. Control cultures were maintained in hepatocyte culture medium throughout. For the hormone study only, the 6-day-old collagen double-gel cultures were washed 10 times with unsupplemented DMEM to remove residual hormones in the collagen gel, and twice with medium or plasma identical to the following experimental condition.
(§4) Culture supernatants were collected daily after a 24 hour culture period. […] A standard curve was derived using background culture medium prepared by incubation with an empty collagen gel for the same period as the cell culture, and chromatographically purified rat albumin (Cappel Laboratories). Urea concentration in standard culture medium and in plasma was measured by the specific reaction of diacetyl monoxime with urea (Blood Urea Nitrogen Assay Kit, Sigma Diagnostics).
(§5) Rates of secretion were normalized to the number of cells initially seeded. […] The statistical significance of observed differences was determined by two-way analysis of variance and post hoc Tukey's test. An alpha value of 5% was considered significant.

Rat hepatocytes [2] = assay: Urea synthesis rate of rat hepatocytes (collagen sandwich) exposed to supplemented citrated human plasma; format: cell-based
Description: as §1, §2, §3, §4, §5

[3] = citrated human plasma + 5× medium concentrate, day 5 of plasma exposure, vs fully supplemented plasma

Compound	Effect on albumin synthesis of removing (or reducing) the component in the plasma supplementation (Rat hepatocytes [1]; [3])	Effect on urea synthesis of removing (or reducing) the component in the plasma supplementation (Rat hepatocytes [2]; [3])	further results
[Ca+2].[Cl-].[Cl-] [calcium chloride]			Effect on albumin synthesis of removing (or reducing) the component in the plasma supplementation (Rat hepatocytes [1]): significantly less; Effect on urea synthesis of removing (or reducing) the component in the plasma supplementation (Rat hepatocytes [2]): significantly less
insulin [reference compound]	significantly reduced		
C[C@]12CCC(=O)C=C1CC[C@@H]1[C@@H]2[C@@H](O)C[C@@]2(C)[C@H]1CC[C@]2(O)C(=O)CO [hydrocortisone, reference compound]	significantly reduced		
NC(=O)CC[C@H](N)C(=O)O [glutamine]			Albumin synthesis (in words) vs plasma with BME amino acid supplementation (Rat hepatocytes [1]; day 5 of plasma exposure): significantly less albumin; Urea synthesis rate (in words) (Rat hepatocytes [2]; 10 mM as only amino acid supplementation of citrated plasma, day 5 of plasma exposure): maintained
NCC(=O)O [glycine]			Albumin synthesis (in words) vs plasma with BME amino acid supplementation (Rat hepatocytes [1]; day 5 of plasma exposure): significantly less albumin; Decrease of urea synthesis rate (Rat hepatocytes [2]; 10 mM as only amino acid supplementation of citrated plasma, day 5 of plasma exposure, vs BME amino acids): 43%
[Cl-].[Cl-].[Mg+2] [magnesium chloride]			Effect on albumin synthesis of removing (or reducing) the component in the plasma supplementation (Rat hepatocytes [1]): significantly less; Effect on urea synthesis of removing (or reducing) the component in the plasma supplementation (Rat hepatocytes [2]): significantly less
glucagon [reference compound]	significantly reduced	decreased significantly	
[Cl-].[K+] [potassium chloride]	no significant effect	no significant effect	
[Cl-].[Na+] [sodium chloride]	increased; also recorded: enhanced	increased; also recorded: enhanced	
